These results are taken from PubChem BioAssay AID2740 (NMMLSC, 2010).

Each structure is given as a SMILES string. Active and inactive are the calls of the source.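 How the source made its calls: active means compounds whose fitted half-maximal concentration for changing the GFP signal is at or below a set limit; inactive means the rest.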

The assay in a line: TOR pathway RPL19A-GFP modulators, concentration series – cell-based, S. cerevisiae, flow cytometry, MLPCN hits, dose response (AID 2740).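 Further: background is signal of the same compound in parental non-GFP s288c yeast.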 Particulars: S. cerevisiae RPL19A-GFP strain, flow cytometry fluorescence, 3 h; at 33 µM (top of the series). (In general: Flow cytometry measures light scatter and fluorescence of single cells or particles in a stream.)
With `CCN(CC)C(=O)Oc1ccnc2cc(Cl)ccc12`, the GFP fluorescence, lower = active (kMESF (background-subtracted)) is 41.8 (inactive).
The result for `CC(C)[C@@]1(c2ccccc2)ON(c2ccccc2C(F)(F)F)C1=O` reads 40.1 (inactive); that for `Cc1[nH]c2ccccc2c1C(=O)COC(=O)c1ccc([N+](=O)[O-])s1`, 13.6 (inactive).
For the compound `COc1ccccc1C(=O)NNC(=S)NC(=O)c1cccs1`, the GFP fluorescence, lower = active (kMESF (background-subtracted)) was 43.5 (inactive).
Take `Cc1ccccc1N=Nc1ccc(O)c2ncccc12`: the GFP fluorescence, lower = active (kMESF (background-subtracted)) was 36.9 (inactive).
Then `COc1ccccc1N=Cc1nc(-c2ccccc2)oc1OC(C)=O`, with 46.8 (inactive); and `N#Cc1ccc(N=c2ssnc2Cl)cc1`, with 42 (inactive); and `O=C1Nc2ccccc2/C1=C\C(=O)c1ccccc1`, with 34.2 (inactive).
Then `COc1cccc(/C=N/Nc2ncc(C(F)(F)F)cc2Cl)c1O`, with 38.7 (inactive).
Take `O=C1NC(=O)N(c2ccccc2)C(=O)/C1=C/c1ccc(Sc2ccccc2)o1`: the GFP fluorescence, lower = active (kMESF (background-subtracted)) is 37.1 (inactive).
Then `O=C(O)c1cccc(S(=O)(=O)Nc2ccc(S(=O)(=O)N3CCOCC3)cc2)c1`, with 38.7 (inactive); and `CCC(=O)Oc1oc(-c2ccccc2)nc1C=Nc1ccccc1OC`, with 41.6 (inactive).
The result for `COc1ccc(Cl)cc1C(Nc1cccnc1)c1ccc2cccnc2c1O` (stereo not given) reads 42.8 (inactive).
Take `O=C(Sc1cccc2cccnc12)c1ccccc1Br`: the GFP fluorescence, lower = active (kMESF (background-subtracted)) is 34.8 (inactive).
Then `O=C(Nc1nnc(-c2ccc(F)cc2)o1)c1cccc([N+](=O)[O-])c1`, with 43.5 (inactive).
Then `N#Cc1cc([N+](=O)[O-])c(-n2nnc3ccccc32)c([N+](=O)[O-])c1`, with 43.3 (inactive).
The result for `COc1cc(CNC(=O)CCCCCCC(C)C)ccc1O` reads 48.5 (inactive); that for `Cc1cc(O)c(C(=O)/C=C/c2ccc(Cl)cc2)c(=O)o1`, 33 (inactive); that for `Nc1ccc2ccc3cccc[n+]3c2c1`, 45.9 (inactive).
On to `CCOC(=O)C1=C(O)c2ccccc2C(=O)/C1=C\c1ccc(C)cc1`, for which the GFP fluorescence, lower = active (kMESF (background-subtracted)) is -7.18 (inactive).
Take `CC(=O)Oc1ccc(/C=c2\sc3ncnn3c2=O)cc1`: the GFP fluorescence, lower = active (kMESF (background-subtracted)) is 50 (inactive).
In the case of `O=C(COc1c(Br)cc(Br)c2cccnc12)N1CCc2ccccc2C1`, the GFP fluorescence, lower = active (kMESF (background-subtracted)) was 45.4 (inactive).
The result for `Oc1c(CN2CCN(c3ccc(F)cc3)CC2)cc(Cl)c2cccnc12` reads 40.4 (inactive); that for `COc1ccc(C(c2c(C)[nH]n(C(N)=S)c2=O)C(C#N)C#N)cc1` (stereo not given), 24.7 (inactive); that for `Cc1ccc(C(=O)Oc2oc(-c3ccccc3)nc2C=Nc2ccc(N(C)C)cc2)cc1`, 38.8 (inactive).
On to `O=[N+]([O-])c1ccc(N=Nc2c(Cl)cc(O)cc2Cl)cc1`, for which the GFP fluorescence, lower = active (kMESF (background-subtracted)) was 37.9 (inactive).
Then `Cc1ccc(-c2nc(N)c3c(-c4ccc(C)cc4)nn(C(C)(C)C)c3n2)cc1`, with 43.1 (inactive); and `N/C(=N\OC(=O)c1cc(Br)ccc1Cl)c1ccccn1`, with 39.8 (inactive); and `Cc1ccc(C(CC(=O)O)NC(=O)c2ccc(S(=O)(=O)N3CC(C)OC(C)C3)cc2)cc1` (stereo not given), with 39.2 (inactive).
Then `COc1ccc(C2=CC3=C(Br)C(=O)C(C)(O)C(=O)C3=CO2)cc1` (stereo not given), with 1.92 (inactive).
